Laboratory results reported in patent US9694016B2 (Novartis AG, priority 2013, dated 2017).

Target: b-Raf (V600E) (Homo sapiens (Human), UniProt P15056, V600E)
Details: read-out: b-Raf IC-50; AlphaScreen, 60 min pre-incubation, reaction 3 hours at room temperature

Chain of b-Raf (V600E) (P15056 whole entry V600E): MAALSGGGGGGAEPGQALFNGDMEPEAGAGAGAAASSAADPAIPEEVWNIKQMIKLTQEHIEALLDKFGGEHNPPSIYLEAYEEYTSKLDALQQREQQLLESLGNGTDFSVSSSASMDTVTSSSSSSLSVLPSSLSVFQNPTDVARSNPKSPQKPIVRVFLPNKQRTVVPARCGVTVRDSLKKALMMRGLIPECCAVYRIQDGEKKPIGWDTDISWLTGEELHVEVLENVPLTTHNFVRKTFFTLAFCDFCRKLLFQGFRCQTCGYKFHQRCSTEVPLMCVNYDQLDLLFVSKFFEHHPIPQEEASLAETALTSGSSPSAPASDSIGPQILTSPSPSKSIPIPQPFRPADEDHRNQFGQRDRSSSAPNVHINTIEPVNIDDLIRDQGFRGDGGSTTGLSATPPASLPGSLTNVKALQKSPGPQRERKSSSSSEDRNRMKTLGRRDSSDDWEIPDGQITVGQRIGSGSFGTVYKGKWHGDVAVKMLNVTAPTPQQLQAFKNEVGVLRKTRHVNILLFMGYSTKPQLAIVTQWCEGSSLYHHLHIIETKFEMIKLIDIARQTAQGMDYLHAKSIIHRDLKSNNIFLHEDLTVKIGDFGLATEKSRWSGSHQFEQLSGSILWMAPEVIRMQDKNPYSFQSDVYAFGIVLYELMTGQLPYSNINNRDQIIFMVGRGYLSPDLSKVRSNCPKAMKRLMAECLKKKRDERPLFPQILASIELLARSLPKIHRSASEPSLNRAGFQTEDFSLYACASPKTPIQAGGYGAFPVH

Structure (SMILES) | IC50 [nM]
Cc1ncc(NC(=O)c2ccnc(C3CC3)c2)cc1-c1cc(N2CCOCC2)nc(N2CC(C)(O)C2)c1 [Example 1102, 2-cyclopropyl-N-(2′-(3-hydroxy-3-methylazetidin-1-yl)-2-methyl-6′-morpholino-[3,4′-bipyridin]-5-yl)isonicotinamide] | 4.45
Cc1ncc(NC(=O)c2ccnc(C(F)F)c2)cc1-c1cc(N2CCOCC2)nc(N2CC(C)(O)C2)c1 [Example 1103, 2-(difluoromethyl)-N-(2′-(3-hydroxy-3-methylazetidin-1-yl)-2-methyl-6′-morpholino-[3,4′-bipyridin]-5-yl)isonicotinamide] | 6.7
Cc1ncc(NC(=O)c2ccnc(C(F)(F)F)c2)cc1-c1cc(N2CCOCC2)nc(N2CC(C)(O)C2)c1 [Example 1104, N-(2′-(3-hydroxy-3-methylazetidin-1-yl)-2-methyl-6′-morpholino-[3,4′-bipyridin]-5-yl)-2-(trifluoromethyl)isonicotinamide] | 7.64
Cc1ncc(NC(=O)c2ccnc(C(C)(F)F)c2)cc1-c1cc(N2CCOCC2)nc(N2CC(C)(O)C2)c1 [Example 1105, 2-(1,1-difluoroethyl)-N-(2′-(3-hydroxy-3-methylazetidin-1-yl)-2-methyl-6′-morpholino-[3,4′-bipyridin]-5-yl)isonicotinamide] | 5.62
Cc1ncc(NC(=O)c2ccnc(C(C)(C)F)c2)cc1-c1cc(N2CCOCC2)nc(N2CC(C)(O)C2)c1 [Example 1106, 2-(2-fluoropropan-2-yl)-N-(2′-(3-hydroxy-3-methylazetidin-1-yl)-2-methyl-6′-morpholino-[3,4′-bipyridin]-5-yl)isonicotinamide] | 8.59
Cc1ncc(NC(=O)c2cnnc(C(F)(F)F)c2)cc1-c1cc(N2CCOCC2)nc(N2CC(C)(O)C2)c1 [Example 1107, N-(2′-(3-hydroxy-3-methylazetidin-1-yl)-2-methyl-6′-morpholino-[3,4′-bipyridin]-5-yl)-6-(trifluoromethyl)pyridazine-4-carboxamide] | 13.4
Cc1ncc(NC(=O)c2ccnc(C(C)(C)C#N)c2)cc1-c1cc(N2CCOCC2)nc(N2CC(C)(O)C2)c1 [Example 1108, 2-(2-cyanopropan-2-yl)-N-(2′-(3-hydroxy-3-methylazetidin-1-yl)-2-methyl-6′-morpholino-[3,4′-bipyridin]-5-yl)isonicotinamide] | 20.4
Cc1ncc(NC(=O)c2ccnc(C3(C#N)CC3)c2)cc1-c1cc(N2CCOCC2)nc(N2CC(C)(O)C2)c1 [Example 1109, 2-(1-cyanocyclopropyl)-N-(2′-(3-hydroxy-3-methylazetidin-1-yl)-2-methyl-6′-morpholino-[3,4′-bipyridin]-5-yl)isonicotinamide] | 8.02
Cc1ccc(NC(=O)c2ccnc(C(C)(C)C#N)c2)cc1-c1cc(N2CCOCC2)nc(N2CC(C)(O)C2)c1 [Example 1110, 2-(2-cyanopropan-2-yl)-N-(3-(2-(3-hydroxy-3-methylazetidin-1-yl)-6-morpholinopyridin-4-yl)-4-methylphenyl)isonicotinamide] | 4.82
Cc1ncc(NC(=O)c2ccnc(C(C)(C)C#N)c2)cc1-c1cc(N2CCOCC2)nc(N2CCOCC2)c1 [Example 1123, 2-(2-cyanopropan-2-yl)-N-(2-methyl-2′,6′-dimorpholino-[3,4′-bipyridin]-5-yl)isonicotinamide] | 10.8
Cc1ncc(NC(=O)c2ccnc(S(C)(=O)=O)c2)cc1-c1cc(N2CCOCC2)nc(N2CCOCC2)c1 [Example 1124, N-(2-methyl-2′,6′-dimorpholino-[3,4′-bipyridin]-5-yl)-2-(methylsulfonyl)isonicotinamide] | 12.1
CCn1cc(C(=O)Nc2cnc(C)c(-c3cc(N4CCOCC4)nc(N4CCOCC4)c3)c2)cc(C(F)(F)F)c1=O [Example 1125, 1-ethyl-N-(2-methyl-2′,6′-dimorpholino-[3,4′-bipyridin]-5-yl)-6-oxo-5-(trifluoromethyl)-1,6-dihydropyridine-3-carboxamide] | 10
Cc1ncc(NC(=O)c2cccc(C(F)(F)F)c2)cc1-c1cc(N2CCNCC2)nc(N2CCOCC2)c1 [Example 1129, N-(2-methyl-2′-morpholino-6′-(piperazin-1-yl)-[3,4′-bipyridin]-5-yl)-3-(trifluoromethyl)benzamide] | 4.64
Cc1ccc(NC(=O)c2cccc(C(F)(F)F)c2)cc1-c1ccnc(N2CCOCC2=O)c1 [Example 1134] | 4.99
Cc1ncc(NC(=O)c2cccc(C(F)(F)F)c2)cc1-c1ccnc(N2CCOCC2=O)c1 [Example 1135, N-(2-methyl-2′-(3-oxomorpholino)-[3,4′-bipyridin]-5-yl)-3-(trifluoromethyl)benzamide] | 43
Cc1ncc(NC(=O)c2ccnc(C(C)C)c2)cc1-c1ccnc(N2CCOCC2)c1 [Example 1136, 2-isopropyl-N-(2-methyl-2′-morpholino-[3,4′-bipyridin]-5-yl)isonicotinamide] | 5.03
Cc1ncc(NC(=O)c2ccnc(C(C)(C)F)c2)cc1-c1cc(NCCO)nc(N2CCOC[C@H]2C)c1 [Example 1138, (R)-2-(2-fluoropropan-2-yl)-N-(2′-((2-hydroxyethyl)amino)-2-methyl-6′-(3-methylmorpholino)-[3,4′-bipyridin]-5-yl)isonicotinamide] | 27.8
Cc1ncc(NC(=O)c2ccnc(C(C)(F)F)c2)cc1-c1cc(NCCO)nc(N2CCOC[C@H]2C)c1 [Example 1139, (R)-2-(1,1-difluoroethyl)-N-(2′-((2-hydroxyethyl)amino)-2-methyl-6′-(3-methylmorpholino)-[3,4′-bipyridin]-5-yl)isonicotinamide] | 14.3

Stronger by IC50, values ahead:

IC50 [nM] | Structure (SMILES)
3.31 | Cc1ncc(NC(=O)c2ccnc(C(F)F)c2)cc1-c1cc(N2CCOCC2)nc(N2CCOCC2)c1 [Example 1122, 2-(difluoromethyl)-N-(2-methyl-2′,6′-dimorpholino-[3,4′-bipyridin]-5-yl)isonicotinamide]
3.14 | CCn1cc(C(=O)Nc2ccc(C)c(-c3cc(N4CCOCC4)nc(N4CCOCC4)c3)c2)cc(C(F)(F)F)c1=O [Example 1114, N-(3-(2,6-dimorpholinopyridin-4-yl)-4-methylphenyl)-1-ethyl-6-oxo-5-(trifluoromethyl)-1,6-dihydropyridine-3-carboxamide]
2.34 | Cc1ncc(NC(=O)c2cccc(C(F)(F)F)c2)cc1-c1cc(N2CCOCC2)nc(N2CCC(O)C2)c1 (stereo not shown) [Example 1131, N-(2′-(3-hydroxypyrrolidin-1-yl)-2-methyl-6′-morpholino-[3,4′-bipyridin]-5-yl)-3-(trifluoromethyl)benzamide]
2.24 | Cc1ccc(NC(=O)c2ccnc(C(F)(F)F)c2)cc1-c1cc(N2CCOCC2)nc(N2CCC(O)C2)c1 (stereo not shown) [Example 1130, N-(3-(2-(3-hydroxypyrrolidin-1-yl)-6-morpholinopyridin-4-yl)-4-methylphenyl)-2-(trifluoromethyl)isonicotinamide]
2.16 | Cc1ccc(NC(=O)c2ccnc(C(F)(F)F)c2)cc1-c1cc(N2CCNCC2)nc(N2CCOCC2)c1 [Example 1128, N-(4-methyl-3-(2-morpholino-6-(piperazin-1-yl)pyridin-4-yl)phenyl)-2-(trifluoromethyl)isonicotinamide]
2.09 | Cc1ccc(NC(=O)c2ccnc(C3(C#N)CC3)c2)cc1-c1cc(N2CCOCC2)nc(N2CC(C)(O)C2)c1 [Example 1111, 2-(1-cyanocyclopropyl)-N-(3-(2-(3-hydroxy-3-methylazetidin-1-yl)-6-morpholinopyridin-4-yl)-4-methylphenyl)isonicotinamide]
2 | Cc1ncc(NC(=O)c2ccnc(C(C)C)c2)cc1-c1cc(N2CCOCC2)nc(N2CCOCC2)c1 [Example 1119, 2-isopropyl-N-(2-methyl-2′,6′-dimorpholino-[3,4′-bipyridin]-5-yl)isonicotinamide]
1.63 | Cc1ncc(NC(=O)c2ccnc(C(F)(F)F)c2)cc1-c1cc(N2CCOCC2)nc(N2CCOCC2)c1 [Example 1120, N-(2-methyl-2′,6′-dimorpholino-[3,4′-bipyridin]-5-yl)-2-(trifluoromethyl)isonicotinamide]
1.48 | Cc1ccc(NC(=O)c2ccnc(C(F)(F)F)c2)cc1-c1cc(-c2c(C)n[nH]c2C)nc(N2CCOCC2)c1 [Example 1127, N-(3-(2-(3,5-dimethyl-1H-pyrazol-4-yl)-6-morpholinopyridin-4-yl)-4-methylphenyl)-2-(trifluoromethyl)isonicotinamide]
1.32 | Cc1ccc(NC(=O)c2ccnc(C(C)(C)C#N)c2)cc1-c1cc(N2CCOCC2)nc(N2CCOCC2)c1 [Example 1113, 2-(2-cyanopropan-2-yl)-N-(3-(2,6-dimorpholinopyridin-4-yl)-4-methylphenyl)isonicotinamide]
1.31 | Cc1ccc(NC(=O)c2ccnc(C(C)C)c2)cc1-c1cc(N2CCOCC2)nc(N2CCOCC2)c1 [Example 1117, N-(3-(2,6-dimorpholinopyridin-4-yl)-4-methylphenyl)-2-isopropylisonicotinamide]
1.29 | CCOc1cc(-c2cc(NC(=O)c3ccnc(C(F)(F)F)c3)ccc2C)cc(N2CCOCC2)n1 [Example 1133, N-(3-(2-ethoxy-6-morpholinopyridin-4-yl)-4-methylphenyl)-2-(trifluoromethyl)isonicotinamide]
1.02 | Cc1ccc(NC(=O)c2ccnc(S(C)(=O)=O)c2)cc1-c1cc(N2CCOCC2)nc(N2CCOCC2)c1 [Example 1118, N-(3-(2,6-dimorpholinopyridin-4-yl)-4-methylphenyl)-2-(methylsulfonyl)isonicotinamide]
0.83 | Cc1ccc(NC(=O)c2ccnc(C(F)(F)F)c2)cc1-c1cc(N2CCOCC2)nc(N2CCOCC2)c1 [Example 1112, N-(3-(2,6-dimorpholinopyridin-4-yl)-4-methylphenyl)-2-(trifluoromethyl)isonicotinamide]
0.82 | Cc1ccc(NC(=O)c2cccc(C(F)F)c2)cc1-c1cc(N2CCOCC2)nc(N2CCOCC2)c1 [Example 1116, 3-(difluoromethyl)-N-(3-(2,6-dimorpholinopyridin-4-yl)-4-methylphenyl)benzamide]
0.65 | Cc1ccc(NC(=O)c2ccnc(C(F)F)c2)cc1-c1cc(N2CCOCC2)nc(N2CCOCC2)c1 [Example 1115, 2-(difluoromethyl)-N-(3-(2,6-dimorpholinopyridin-4-yl)-4-methylphenyl)isonicotinamide]
